PMC4687966 (Journal of medicinal chemistry, 2015)

Tests used:
[1] = target: T1, Mtb BioA (Mycobacterium tuberculosis, UniProt P9WQ81); format: binding; conditions: for KA / ΔH / −TΔS / ΔG: 25 °C; for KA / ΔH: 100 µM BioA, pH 7.5; for −TΔS: from ΔG = ΔH − TΔS; for ΔG: ΔG = −RT ln KA; for LE (ligand efficiency): LE = (−ΔG)/N, N = number of non-hydrogen atoms
[2] = target: T1, Mtb BioA; assay: Differential scanning fluorimetry; format: binding; conditions: DSF; holo BioA Tm 85 °C

T1 sequence (P9WQ81 whole entry): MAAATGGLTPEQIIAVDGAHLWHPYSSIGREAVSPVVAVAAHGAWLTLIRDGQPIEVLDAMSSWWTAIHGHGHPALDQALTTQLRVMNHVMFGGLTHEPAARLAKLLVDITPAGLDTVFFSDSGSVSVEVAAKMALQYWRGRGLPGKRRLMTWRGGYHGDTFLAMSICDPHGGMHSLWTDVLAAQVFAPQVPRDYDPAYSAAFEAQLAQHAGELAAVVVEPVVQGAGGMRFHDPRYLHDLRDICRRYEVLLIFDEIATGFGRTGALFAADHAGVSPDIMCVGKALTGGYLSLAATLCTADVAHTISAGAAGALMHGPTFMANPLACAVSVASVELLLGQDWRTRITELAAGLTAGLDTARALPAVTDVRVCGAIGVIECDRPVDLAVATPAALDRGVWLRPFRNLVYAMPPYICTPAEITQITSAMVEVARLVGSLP

Row | Compound | KA ([1]; ITC) | ΔH ([1]; ITC) | −TΔS ([1]; ITC) | ΔG ([1]; ITC) | LE (ligand efficiency) [1] | Tm of BioA with compound [2] | Improvement in KD over the parent fragment F5 ([1]; ITC) | ΔH (enthalpic stabilization) ([1]; ITC) | −TΔS (binding entropy) ([1]; ITC)
1 | NC(=O)c1ccc(-n2ccnc2)cc1 [F3] | 6.8 ± 1.3 10^4 M^−1 | -6.3 ± 0.2 kcal/mol | -0.2 ± 0.1 kcal/mol | -6.6 ± 0.1 kcal/mol | 0.47 |  |  |  | 
2 | CC(=O)Nc1ccc2c(c1)C=CC2=O [F9] | 4.6 ± 0.3 10^4 M^−1 | -3.3 ± 0.2 kcal/mol | -3.0 ± 0.2 kcal/mol | -6.3 ± 0.0 kcal/mol | 0.45 |  |  |  | 
3 | NCc1ccc(Cn2cc(Cl)cn2)cc1 [F5.1] | 14.9 ± 1.7 10^4 M^−1 | -11.3 ± 0.5 kcal/mol | 4.3 ± 0.5 kcal/mol | -7.0 ± 0.1 kcal/mol | 0.47 | 73 °C | 1.7 fold |  | 
4 | NCc1nc2ccccc2s1 [F10] | 3.3 ± 0.5 10^4 M^−1 | -1.4 ± 0.2 kcal/mol | -4.8 ± 0.1 kcal/mol | -6.1 ± 0.1 kcal/mol | 0.55 |  |  |  | 
5 | CNCc1ccc(Cn2cccn2)cc1 [F5] | 8.6 ± 0.1 10^4 M^−1 | -12.9 ± 0.6 kcal/mol | 6.2 ± 0.6 kcal/mol | -6.7 ± 0.0 kcal/mol | 0.45 |  |  | -12.9 kcal/mol | +6.2 kcal/mol
6 | NC(=O)c1ccc(-c2ccccn2)s1 [F2] | 14.6 ± 1.3 10^4 M^−1 | -5.4 ± 0.0 kcal/mol | -1.6 ± 0.1 kcal/mol | -7.0 ± 0.1 kcal/mol | 0.50 |  |  |  | 
7 | O=C(c1ccccc1)C1CCNCC1 [F7] | 2.4 ± 0.4 10^4 M^−1 | -4.9 ± 0.2 kcal/mol | -1.1 ± 0.2 kcal/mol | -6.0 ± 0.1 kcal/mol | 0.43 |  |  |  | 
